From patent EP2970215B1, “PYRROLIDINE DERIVATIVES, PHARMACEUTICAL COMPOSITIONS CONTAINING THEM, AND THEIR USE IN THERAPY” (AbbVie Deutschland GmbH & Co. KG, priority 2013, dated 2014)

Target: T1, human GlyT1c transporter (Homo sapiens, UniProt P48067)
T1 construct: expressed in transfected cells; host or cells: CHO cells (recombinant; line hGlyT1c_5_CHO is named for the uptake assay)
T1 sequence (P48067 1-706): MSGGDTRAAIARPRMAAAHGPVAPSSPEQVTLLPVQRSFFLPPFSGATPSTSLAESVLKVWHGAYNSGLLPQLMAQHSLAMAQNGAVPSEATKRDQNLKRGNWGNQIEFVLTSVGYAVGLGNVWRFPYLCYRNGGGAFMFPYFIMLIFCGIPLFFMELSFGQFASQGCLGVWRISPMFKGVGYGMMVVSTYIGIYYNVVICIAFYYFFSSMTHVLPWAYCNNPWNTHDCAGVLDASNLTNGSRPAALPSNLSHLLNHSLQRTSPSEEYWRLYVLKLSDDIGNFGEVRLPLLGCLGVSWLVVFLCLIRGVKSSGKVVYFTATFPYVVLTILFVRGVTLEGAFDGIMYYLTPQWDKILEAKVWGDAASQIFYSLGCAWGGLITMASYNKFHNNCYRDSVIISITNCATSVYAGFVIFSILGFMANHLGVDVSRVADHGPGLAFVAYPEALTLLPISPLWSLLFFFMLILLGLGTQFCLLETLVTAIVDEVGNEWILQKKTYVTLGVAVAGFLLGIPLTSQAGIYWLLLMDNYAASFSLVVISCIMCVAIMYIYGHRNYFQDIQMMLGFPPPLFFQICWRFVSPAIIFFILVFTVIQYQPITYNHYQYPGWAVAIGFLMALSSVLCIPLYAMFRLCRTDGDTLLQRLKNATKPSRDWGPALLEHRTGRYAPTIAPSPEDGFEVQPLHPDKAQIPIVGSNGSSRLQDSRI
Assay: Radioligand binding assay using recombinant CHO cell membranes expressing human GlyT1
Conditions: radioligand binding to human GlyT1c transporter-expressing membranes
Description: 2. Radioligand binding assays using recombinant CHO cell membranes expressing human GlyT1: […]

Ki	Compound
≤ 10000 nM	COc1ccc(N[C@@H]2CN(S(=O)(=O)c3cn(C)cn3)C[C@H]2c2ccccc2)cc1 (relative stereo) [Example 50, trans-N-(4-methoxyphenyl)-1-[(1-methyl-1H-imidazol-4-yl)sulfonyl]-4-phenylpyrrolidin-3-amine]
≤ 10000 nM	Cn1cnc(S(=O)(=O)N2C[C@@H](Nc3ccc(C#N)cc3)[C@H](c3ccccc3)C2)c1 (relative stereo) [Example 52, 4-({trans-1-[(1-methyl-1H-imidazol-4-yl)sulfonyl]-4-phenylpyrrolidin-3-yl}amino)benzonitrile]
≤ 10000 nM	Cn1cnc(S(=O)(=O)N2C[C@@H](Nc3ccc(C#N)cc3F)[C@H](c3ccccc3)C2)c1 (relative stereo) [Example 53, 3-fluoro-4-({trans-1-[(1-methyl-1H-imidazol-4-yl)sulfonyl]-4-phenylpyrrolidin-3-yl}amino)benzonitrile]
≤ 1000 nM	Cn1cnc(S(=O)(=O)N2C[C@@H](NC(=O)c3cccc(C(F)(F)F)c3Cl)[C@H](c3ccccc3F)C2)c1 (relative stereo) [Example 54, 2-chloro-N-{trans-4-(2-fluorophenyl)-1-[(1-methyl-1H-imidazol-4-yl)sulfonyl]pyrrolidin-3-yl}-3-(trifluoromethyl)benzamide]
≤ 100 nM	Cn1cnc(S(=O)(=O)N2C[C@@H](NC(=O)c3ccc(C(F)(F)F)cc3Cl)[C@H](c3ccccc3)C2)c1 (relative stereo) [Example 60, 2-chloro-N-{trans-1-[(1-methyl-1H-imidazol-4-yl)sulfonyl]-4-phenylpyrrolidin-3-yl}-4-(trifluoromethyl)benzamide]
≤ 1000 nM	Cn1cnc(S(=O)(=O)N2C[C@@H](NC(=O)c3ccc(C(F)(F)F)c(Cl)c3)[C@H](c3ccccc3)C2)c1 (relative stereo) [Example 61, 3-chloro-N-{trans-1-[(1-methyl-1H-imidazol-4-yl)sulfonyl]-4-phenylpyrrolidin-3-yl}-4-(trifluoromethyl)benzamide]
≤ 100 nM	Cn1cnc(S(=O)(=O)N2C[C@@H](NC(=O)c3ccc(C(F)(F)F)cc3Cl)[C@H](c3ccc(F)cc3)C2)c1 (relative stereo) [Example 62, 2-chloro-N-{trans-4-(4-fluorophenyl)-1-[(1-methyl-1H-imidazol-4-yl)sulfonyl]pyrrolidin-3-yl}-4-(trifluoromethyl)benzamide]
≤ 100 nM	Cn1cnc(S(=O)(=O)N2C[C@@H](NC(=O)c3ccc(C(F)(F)F)c(Cl)c3)[C@H](c3ccc(F)cc3)C2)c1 (relative stereo) [Example 63, 3-chloro-N-{trans-4-(4-fluorophenyl)-1-[(1-methyl-1H-imidazol-4-yl)sulfonyl]pyrrolidin-3-yl}-4-(trifluoromethyl)benzamide]
≤ 100 nM	Cn1cnc(S(=O)(=O)N2C[C@@H](NC(=O)c3ccc(C(F)(F)F)cc3)[C@H](c3ccc(F)cc3)C2)c1 (relative stereo) [Example 64, N-{trans-4-(4-fluorophenyl)-1-[(1-methyl-1H-imidazol-4-yl)sulfonyl]pyrrolidin-3-yl}-4-(trifluoromethyl)benzamide]
≤ 1000 nM	Cn1cnc(S(=O)(=O)N2C[C@@H](NC(=O)c3cc(Cl)cc(Cl)c3)[C@H](c3ccc(F)cc3)C2)c1 (relative stereo) [Example 65, 3,5-dichloro-N-{trans-4-(4-fluorophenyl)-1-[(1-methyl-1H-imidazol-4-yl)sulfonyl]pyrrolidin-3-yl}benzamide]
≤ 10000 nM	Cn1cnc(S(=O)(=O)N2C[C@@H](Nc3ccccc3C(F)(F)F)[C@H](c3ccccc3)C2)c1 (relative stereo) [Example 66, trans-1-[(1-methyl-1H-imidazol-4-yl)sulfonyl]-4-phenyl-N-[2-(trifluoromethyl)phenyl]pyrrolidin-3-amine]
≤ 10 nM	Cn1cnc(S(=O)(=O)N2C[C@@H](Nc3cccc(C(F)(F)F)c3)[C@H](c3ccccc3)C2)c1 (relative stereo) [Example 67, trans-1-[(1-methyl-1H-imidazol-4-yl)sulfonyl]-4-phenyl-N-[3-(trifluoromethyl)phenyl]pyrrolidin-3-amine]
≤ 1000 nM	Cn1cnc(S(=O)(=O)N2C[C@@H](Nc3ccc(C(F)(F)F)cc3)[C@H](c3ccccc3)C2)c1 (relative stereo) [Example 68, trans-1-[(1-methyl-1H-imidazol-4-yl)sulfonyl]-4-phenyl-N-[4-(trifluoromethyl)phenyl]pyrrolidin-3-amine]
≤ 10000 nM	Cn1cnc(S(=O)(=O)N2C[C@@H](Nc3ccccc3F)[C@H](c3ccccc3)C2)c1 (relative stereo) [Example 69, trans-N-(2-fluorophenyl)-1-[(1-methyl-1H-imidazol-4-yl)sulfonyl]-4-phenylpyrrolidin-3-amine]
≤ 1000 nM	Cn1cnc(S(=O)(=O)N2C[C@@H](Nc3cccc(F)c3)[C@H](c3ccccc3)C2)c1 (relative stereo) [Example 70, trans-N-(3-fluorophenyl)-1-[(1-methyl-1H-imidazol-4-yl)sulfonyl]-4-phenylpyrrolidin-3-amine]
≤ 10000 nM	Cn1cnc(S(=O)(=O)N2C[C@@H](Nc3ccccc3Cl)[C@H](c3ccccc3)C2)c1 (relative stereo) [Example 73, trans-N-(2-chlorophenyl)-1-[(1-methyl-1H-imidazol-4-yl)sulfonyl]-4-phenylpyrrolidin-3-amine]
≤ 100 nM	Cn1cnc(S(=O)(=O)N2C[C@@H](Nc3cccc(Cl)c3)[C@H](c3ccccc3)C2)c1 (relative stereo) [Example 74, trans-N-(3-chlorophenyl)-1-[(1-methyl-1H-imidazol-4-yl)sulfonyl]-4-phenylpyrrolidin-3-amine]
≤ 1000 nM	Cn1cnc(S(=O)(=O)N2C[C@@H](Nc3ccc(Cl)cc3)[C@H](c3ccccc3)C2)c1 (relative stereo) [Example 75, trans-N-(4-chlorophenyl)-1-[(1-methyl-1H-imidazol-4-yl)sulfonyl]-4-phenylpyrrolidin-3-amine]
≤ 10000 nM	Cn1cnc(S(=O)(=O)N2C[C@@H](Nc3cc(C#N)ccc3F)[C@H](c3ccccc3)C2)c1 (relative stereo) [Example 76, 4-fluoro-3-({trans-1-[(1-methyl-1H-imidazol-4-yl)sulfonyl]-4-phenylpyrrolidin-3-yl}amino)benzonitrile]
≤ 1000 nM	Cn1cnc(S(=O)(=O)N2C[C@@H](Nc3cc(F)cc(C#N)c3)[C@H](c3ccccc3)C2)c1 (relative stereo) [Example 78, 3-fluoro-5-({trans-1-[(1-methyl-1H-imidazol-4-yl)sulfonyl]-4-phenylpyrrolidin-3-yl}amino)benzonitrile]
≤ 1000 nM	Cn1cnc(S(=O)(=O)N2C[C@@H](Nc3ccc(Cl)c(C#N)c3)[C@H](c3ccccc3)C2)c1 (relative stereo) [Example 79, 2-chloro-5-({trans-1-[(1-methyl-1H-imidazol-4-yl)sulfonyl]-4-phenylpyrrolidin-3-yl}amino)benzonitrile]
≤ 1000 nM	Cn1cnc(S(=O)(=O)N2C[C@@H](Nc3cc(Cl)cc(C#N)c3)[C@H](c3ccccc3)C2)c1 (relative stereo) [Example 80, 3-chloro-5-({trans-1-[(1-methyl-1H-imidazol-4-yl)sulfonyl]-4-phenylpyrrolidin-3-yl}amino)benzonitrile]

Compound	Ki
Cn1cnc(S(=O)(=O)N2C[C@@H](NC(=O)c3cccc(C(F)(F)F)c3Cl)[C@H](c3cccc(F)c3)C2)c1 (relative stereo) [Example 55, 2-chloro-N-{trans-4-(3-fluorophenyl)-1-[(1-methyl-1H-imidazol-4-yl)sulfonyl]pyrrolidin-3-yl}-3-(trifluoromethyl)benzamide]	≤ 1000 nM
Cn1cnc(S(=O)(=O)N2C[C@@H](NC(=O)c3cccc(C(F)(F)F)c3Cl)[C@H](c3cccc(Cl)c3)C2)c1 (relative stereo) [Example 56, 2-chloro-N-{trans-4-(3-chlorophenyl)-1-[(1-methyl-1H-imidazol-4-yl)sulfonyl]pyrrolidin-3-yl}-3-(trifluoromethyl)benzamide]	≤ 1000 nM
Cc1cccc(N[C@@H]2CN(S(=O)(=O)c3cn(C)cn3)C[C@H]2c2ccccc2)c1 (relative stereo) [Example 58, trans-1-[(1-methyl-1H-imidazol-4-yl)sulfonyl]-N-(3-methylphenyl)-4-phenylpyrrolidin-3-amine]	≤ 100 nM
Cn1cnc(S(=O)(=O)N2C[C@@H](Nc3ccc(F)cc3)[C@H](c3ccccc3)C2)c1 (relative stereo) [Example 71, trans-N-(4-fluorophenyl)-1-[(1-methyl-1H-imidazol-4-yl)sulfonyl]-4-phenylpyrrolidin-3-amine]	≤ 1000 nM
Cn1cnc(S(=O)(=O)N2C[C@@H](Nc3cccc(C#N)c3F)[C@H](c3ccccc3)C2)c1 (relative stereo) [Example 77, 2-fluoro-3-({trans-1-[(1-methyl-1H-imidazol-4-yl)sulfonyl]-4-phenylpyrrolidin-3-yl}amino)benzonitrile]	≤ 1000 nM
